Experimental data reported in PubChem BioAssay AID1259411 (Chemical Carcinogenesis Research Information System (CCRIS), 2018).
Calls of active or inactive are those of the source. No rule for the calls is given here.

Tested on: rodent carcinogenicity bioassays, tumor incidence
Experiment: CCRIS carcinogenicity studies
In short: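 NCI-built, expert-reviewed records of carcinogenicity and related test outcomes (mutagenicity, tumor promotion/inhibition) compiled from published and report sources, historical span 1985-2011, not updated.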

With Cc1cccn2c1nc1ccc(N)nc12 the carcinogen call (Species: MOUSE, Strain/Sex: B6C3F1/MALE, Route: INTRAPERITONEAL, Dose: 0, 0.625 UMOL IN 35 µL DMSO ON D 1, 8, AND 15 AFTER BIRTH (STUDY DURATION: 8 MO), Tumor Site: Type of Lesion: LIVER: HEPATOCELLULAR ADENOMA) was “active; positive”, the carcinogen call (Species: MOUSE, Strain/Sex: B6C3F1/MALE, Route: INTRAPERITONEAL, Dose: 0, 0.625 UMOL IN 35 µL DMSO ON D 1, 8, AND 15 AFTER BIRTH (STUDY DURATION: 12 MO), Tumor Site: Type of Lesion: LIVER: HEPATOCELLULAR ADENOMA) was “active; positive” and the carcinogen call (Species: MOUSE, Strain/Sex: B6C3F1/MALE, Route: INTRAPERITONEAL, Dose: 0, 1.25 UMOL IN 35 µL DMSO ON D 1, 8, AND 15 AFTER BIRTH (STUDY DURATION: 8 MO), Tumor Site: Type of Lesion: LIVER: HEPATOCELLULAR ADENOMA) was “active; positive”. For the same compound, the carcinogen call (Species: MOUSE, Strain/Sex: B6C3F1/MALE, Route: INTRAPERITONEAL, Dose: 0, 1.25 UMOL IN 35 µL DMSO ON D 1, 8, AND 15 AFTER BIRTH (STUDY DURATION: 12 MO), Tumor Site: Type of Lesion: LIVER: HEPATOCELLULAR ADENOMA) was “active; positive”, the carcinogen call (Species: MOUSE, Strain/Sex: CDF1/FEMALE, Route: ORAL, Dose: 0, 0.05% IN DIET FOR UP TO 685 D (STUDY DURATION: 685 D), Tumor Site: Type of Lesion: LIVER: HEPATOCELLULAR ADENOMA OR CARCINOMA, BLOOD VESSELS: HEMANGIOENDOTHELIOMA OR HEMANGIOENDOTHELIAL SARCOMA) was “active; positive” and the carcinogen call (Species: MOUSE, Strain/Sex: CDF1/MALE, Route: ORAL, Dose: 0, 0.05% IN DIET FOR 12 MO (STUDY DURATION: 12 MO), Tumor Site: Type of Lesion: BROWN ADIPOSE TISSUE: HEMANGIOENDOTHELIAL SARCOMA, LIVER: HEPATOCELLULAR ADENOMA OR CARCINOMA, LUNG: PULMONARY ADENOMA O, Tumor Site: Type of Lesion: BROWN ADIPOSE TISSUE: HEMANGIOENDOTHELIAL SARCOMA, LIVER: HEPATOCELLULAR ADENOMA OR CARCINOMA, LUNG: PULMONARY ADENOMA O) was “active; positive”. The carcinogen call (Species: MOUSE, Strain/Sex: CDF1/MALE, Route: ORAL, Dose: 0, 0.05% IN DIET FOR UP TO 685 D (STUDY DURATION: 685 D), Tumor Site: Type of Lesion: BLOOD VESSELS: HEMANGIOENDOTHELIOMA OR HEMANGIOENDOTHELIAL SARCOMA) was “active; positive”, the carcinogen call (Species: RAT, Strain/Sex: F344/FEMALE, Route: ORAL, Dose: 0, 500 PPM IN DIET (AV DAILY DOSE: 4.3 MG) FOR 24 MO (STUDY DURATION: 104 WK), Tumor Site: Type of Lesion: LIVER: HEPATOCELLULAR CARCINOMA OR ANAPLASTIC HEPATOMA, SMALL INTESTINE: ADENOMA OR ADENOCARCINOMA OR MUCINOUS CARCINOMA) was “active; positive” and the carcinogen call (Species: RAT, Strain/Sex: F344/MALE, Route: ORAL, Dose: 0, 500 PPM IN DIET (AV DAILY DOSE: 7.4 MG) FOR 24 MO (STUDY DURATION: 104 WK), Tumor Site: Type of Lesion: LIVER: HEPATOCELLULAR CARCINOMA OR ANAPLASTIC HEPATOMA, SMALL INTESTINE: ADENOMA OR ADENOCARCINOMA OR MUCINOUS CARCINOMA) was “active; positive”.

In the case of Cc1cc(=O)oc2c1cc(C)c1occ(C)c12, the carcinogen call (Species: MOUSE, Strain/Sex: C3H/HEN/FEMALE, Route: DERMAL, Dose: 0, 250 UG IN 70% ETHANOL 3/WK FOR 48 WK (STUDY DURATION: 68 WK)) is reported as “inactive; negative”.

Nc1ccc(-c2ccc(N)cc2)cc1 was tested, and the carcinogen call (Species: DOG, Route: ORAL, Tumor Site: Type of Lesion: URINARY BLADDER) was “active; positive”, the carcinogen call (Species: HAMSTER, Route: ORAL, Tumor Site: Type of Lesion: LIVER) was “active; positive” and the carcinogen call (Species: HUMAN, Route: ORAL, INHALATION, DERMAL, Tumor Site: Type of Lesion: URINARY BLADDER) was “active; positive”. For the same compound, the carcinogen call (Species: MOUSE, Route: SUBCUTANEOUS, Tumor Site: Type of Lesion: LIVER) was “active; positive”, the carcinogen call (Species: RAT, Route: ORAL, Tumor Site: Type of Lesion: LIVER) was “active; positive” and the carcinogen call (Species: RAT, Route: SUBCUTANEOUS, Tumor Site: Type of Lesion: LIVER, EAR (ZYMBAL GLAND), INJECTION SITE, Tumor Site: Type of Lesion: LIVER, EAR (ZYMBAL GLAND), INJECTION SITE) was “active; positive”. The carcinogen call (Species: RAT, Strain/Sex: STRAIN-CD/FEMALE, Route: INTRAPERITONEAL, Dose: 0, 10, 30 UMOL/KG IN TRIOCTANOIN 2/WK FOR 4 WK (TOTAL DOSES: 13.5, 40.1 UMOL) (STUDY DURATION: 46 WK), Dose: 0, 10, 30 UMOL/KG IN TRIOCTANOIN 2/WK FOR 4 WK (TOTAL DOSES: 13.5, 40.1 UMOL) (STUDY DURATION: 46 WK), Tumor Site: Type of Lesion: MAMMARY GLAND: FIBROADENOMA, ADENOCARCINOMA, EAR (ZYMBAL GLAND): ADENOMA OR CARCINOMA) was “active; positive”.

CC(C)(c1ccc(O)cc1)c1ccc(O)cc1 was tested, and the carcinogen call (Species: MOUSE, Strain/Sex: B6C3F1/FEMALE, Route: ORAL, Dose: 0, 5000, 10000 PPM IN DIET FOR 103 WK (STUDY DURATION: 103 WK), Dose: 0, 5000, 10000 PPM IN DIET FOR 103 WK (STUDY DURATION: 103 WK)) was “inactive; negative”, the carcinogen call (Species: MOUSE, Strain/Sex: B6C3F1/MALE, Route: ORAL, Dose: 0, 1000, 5000 PPM IN DIET FOR 103 WK (STUDY DURATION: 103 WK), Dose: 0, 1000, 5000 PPM IN DIET FOR 103 WK (STUDY DURATION: 103 WK), Tumor Site: Type of Lesion: HEMATOPOIETIC SYSTEM: LYMPHOMA OR LEUKEMIA) was “equivocal” and the carcinogen call (Species: Mouse, Strain/Sex: CD-1/Female (24/group); Route: Subcutaneous; Dose: 0; 10; 100; 1000 ug/kg in corn oil, once a day from days 1-5 of life; study duration 18 mo); Dose: 0; 10; 100; 1000 ug/kg in corn oil, once a day from days 1-5 of life; study duration 18 mo), Tumor Site: Type of Lesion: Uterus, leiomyoma (0/18; 1/23; 2/20; 1/16 [multiple lesions]), Tumor Site: Type of Lesion: Uterus, leiomyoma (0/18; 1/23; 2/20; 1/16 [multiple lesions])) was “inactive; negative (nonneoplastic and preneoplastic lesions observed in ovary/oviduct and”. The carcinogen call (Species: RAT, Strain/Sex: F344/FEMALE, Route: ORAL, Dose: 0, 1000, 2000 PPM IN DIET FOR 103 WK (STUDY DURATION: 103 WK), Dose: 0, 1000, 2000 PPM IN DIET FOR 103 WK (STUDY DURATION: 103 WK), Tumor Site: Type of Lesion: HEMATOPOIETIC SYSTEM: LEUKEMIA) was “equivocal”, the carcinogen call (Species: RAT, Strain/Sex: F344/MALE, Route: ORAL, Dose: 0, 1000, 2000 PPM IN DIET FOR 103 WK (STUDY DURATION: 103 WK), Dose: 0, 1000, 2000 PPM IN DIET FOR 103 WK (STUDY DURATION: 103 WK), Tumor Site: Type of Lesion: HEMATOPOIETIC SYSTEM: LEUKEMIA) was “equivocal” and the carcinogen call (Species: Rat, Strain/Sex: Wistar-Furth/Female (?/group with maximum of 8 pups per dam), Route: Osmotic pump to dams, Dose: 0, 2.5, 25, 250, 1000 ug/kg bw/day from embryonic day 9 to postnatal day 1, study duration 50 or 95 postnatal days, Dose: 0, 2.5, 25, 250, 1000 ug/kg bw/day from embryonic day 9 to postnatal day 1, study duration 50 or 95 postnatal days, Tumor Site: Type of Lesion: Mammary gland, ductal hyperplasia) was “active; positive (significant increase at all dose levels at pnd 50; significant at 2.5”.

For CC(C)c1ccccc1, the carcinogen call (Species: Mouse, Strain/Sex: B5C3F1/ Female (50/Group), Route: Inhalation, Dose: 0, 125, 250, 500 ppm for 6 hr plus 12 min per d, 5 d/wk, 105 wk (Study duration: 105 wk), Dose: 0, 125, 250, 500 ppm for 6 hr plus 12 min per d, 5 d/wk, 105 wk (Study duration: 105 wk), Tumor Site: Type of Lesion: Lung: Alveolar/bronchiolar adenoma (1/50; 26/50; 36/50; 38/50), Alveolar/bronchiolar carcinoma (3/50, 16/50, 20/50, 34/, Tumor Site: Type of Lesion: Lung: Alveolar/bronchiolar adenoma (1/50; 26/50; 36/50; 38/50), Alveolar/bronchiolar carcinoma (3/50, 16/50, 20/50, 34/) was “active; positive. authors describe as clear evidence of carcinogenicity based on increas”, the carcinogen call (Species: Mouse, Strain/Sex: B5C3F1/ Male (50/Group), Route: Inhalation, Dose: 0, 250, 500, 1,000 ppm for 6 hr plus 12 min per d, 5 d/wk, 105 wk (Study duration: 105 wk), Dose: 0, 250, 500, 1,000 ppm for 6 hr plus 12 min per d, 5 d/wk, 105 wk (Study duration: 105 wk), Tumor Site: Type of Lesion: Lung: Alveolar/bronchiolar adenoma (13/50; 31/50; 29/50), Alveolar/bronchiolar carcinoma (9/50, 19/50, 32/50, 33/, Tumor Site: Type of Lesion: Lung: Alveolar/bronchiolar adenoma (13/50; 31/50; 29/50), Alveolar/bronchiolar carcinoma (9/50, 19/50, 32/50, 33/) was “active; positive. authors describe as clear evidence of carcinogenicity based on increas” and the carcinogen call (Species: Rat, Strain/Sex: F344/N / Female (50/Group), Route: Inhalation, Dose: 0, 250, 500, 1,000 ppm for 6 hr plus 12 min per d, 5 d/wk, 105 wk (Study duration: 105 wk), Dose: 0, 250, 500, 1,000 ppm for 6 hr plus 12 min per d, 5 d/wk, 105 wk (Study duration: 105 wk), Tumor Site: Type of Lesion: Nose (respiratory epithelium): Adenoma (0/50; 5/48; 4/50; 3/50)) was “inactive; negative. authors describe as some evidence of carcinogenicity”. The carcinogen call (Species: Rat, Strain/Sex: F344/N / Male (50/Group), Route: Inhalation, Dose: 0, 250, 500, 1,000 ppm for 6 hr plus 12 min per d, 5 d/wk, 105 wk (Study duration: 105 wk), Dose: 0, 250, 500, 1,000 ppm for 6 hr plus 12 min per d, 5 d/wk, 105 wk (Study duration: 105 wk), Tumor Site: Type of Lesion: Nose (respiratory epithelium): Adenoma (0/50, 7/50, 18/49, 10/50, Renal tubule: Adenoma (1/50; 4/50; 5/50; 4/50), Renal, Tumor Site: Type of Lesion: Nose (respiratory epithelium): Adenoma (0/50, 7/50, 18/49, 10/50, Renal tubule: Adenoma (1/50; 4/50; 5/50; 4/50), Renal) was “active; positive. authors describe as clear evidence of carcinogenicity except that test”.
